Assay results: patent US9556215B2, “Synthetic pentasaccharides having short half-life and high activity” (CARBOMIMETICS, priority 2011, dated 2017)

Assays:
[1] = biological target: T1, factor Xa in the presence of AT (Homo sapiens, UniProt P01008); assay: Determination of anti-factor Xa activity (IC50), Stachrom HP kit; assay type: biochemical; settings: factor Xa inhibition in the presence of AT
T1 construct: purchased Diagnostica Stago Stachrom HP kit
Protocol: In the description of exemplified compounds, “IC50” represents the anti-factor Xa activity.
Determination of Anti-Factor Xa Activity of Compounds (IC50)
The compounds were compared as to their ability of inhibiting factor Xa in the presence of AT under standard conditions. For each compound a curve was plotted representing the inhibition % vs. concentration. The concentration inhibiting 50% of the factor Xa activity (IC50) was determined. A commercially available system was used for this purpose: compoundStachrom HP kit (Diagnostica Stago). This assay was carried out on a STA Compact (Diagnostica Stago).

[2] = Pharmacokinetic study after intravenous administration (half-life of elimination); assay type: in vivo, female Wistar Han rats; settings: plasma concentration by anti-factor Xa bioassay
Protocol: Quantification of Compounds in Plasma
Rat plasmatic concentration of compounds (μg compound/mL plasma) was determined using a bioassay based on their anti-factor Xa activity (Stachrom HP kit, Diagnostica Stago as described above). This assay was carried out on a STA Compact (Diagnostica Stago). A specific calibration curve was preformed with each compound to be quantified in rat plasma.
Pharmacokinetic Study after Intravenous Administration (Half-Life of Elimination, T½)
The pharmacokinetics of the compounds of the present invention were investigated in female Wistar Han rats after intravenous administration.
Blood samples were taken at various time points and blood (9 volumes) was mixed with sodium citrate (1 volume) and cooled immediately on ice. The sample was subjected to a centrifugation at 3000×g for 10 minutes at low temperature (the plasma is typically stable for 24 h at temperature below 8° C.) and stored frozen at −20° C. Concentration of compound (per mL of plasma) was determined by their anti-factor Xa activity using factor Xa activity as described above.
For each compound, the half-life of elimination was calculated from the concentration versus time curve thus obtained.

[3] = cited from earlier work

T1 sequence (P01008 33-464): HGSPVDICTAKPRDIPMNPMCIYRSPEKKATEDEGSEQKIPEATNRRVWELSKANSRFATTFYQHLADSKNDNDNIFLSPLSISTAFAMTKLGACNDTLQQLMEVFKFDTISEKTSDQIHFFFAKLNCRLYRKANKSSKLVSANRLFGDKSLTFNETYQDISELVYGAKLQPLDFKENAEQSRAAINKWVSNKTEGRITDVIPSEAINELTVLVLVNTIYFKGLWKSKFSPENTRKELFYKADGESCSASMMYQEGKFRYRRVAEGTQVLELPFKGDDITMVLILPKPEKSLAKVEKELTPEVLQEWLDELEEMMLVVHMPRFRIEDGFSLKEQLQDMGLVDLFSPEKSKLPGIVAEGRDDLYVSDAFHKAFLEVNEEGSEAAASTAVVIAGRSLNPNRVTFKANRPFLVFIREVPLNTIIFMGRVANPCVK

SMILES: CCC1(C(=O)O)OC(OC2C(COS(=O)(=O)O)OC(OC3C(OC)C4OCC3(C(=O)O)OC4OC3C(COS(=O)(=O)O)OC(OC)C(OS(=O)(=O)O)C3OC)C(OS(=O)(=O)O)C2OS(=O)(=O)O)C(OC)C(OC)C1OC1OC(COS(=O)(=O)O)C(OC)C(OC)C1OC (centres unmarked) [Compound PA01]
- IC50 [1]: 34 nM
- half-life ([2]; female, Wistar Han, rat, read-out: T1/2 (Rat), half-life of elimination (converted)): 3.5 ± 0.3 h

SMILES: CCCCCCOC1C(COS(=O)(=O)O)OC(OC2C(OC)C(OC)C(OC3C(COS(=O)(=O)O)OC(OC4C(OC)C5OCC4(C(=O)O)OC5OC4C(COS(=O)(=O)O)OC(OC)C(OS(=O)(=O)O)C4OC)C(OS(=O)(=O)O)C3OS(=O)(=O)O)OC2(CC)C(=O)O)C(N)C1OCCCCCC (centres unmarked) [Compound PA02]
- IC50 [1]: 108 nM
- T1/2 (Rat), half-life of elimination [2]: 4.8 ± 0.5 h

SMILES: CO[C@H]1O[C@H](COS(=O)(=O)O)[C@@H](O[C@@H]2O[C@@H](C(=O)O)[C@@H](O[C@H]3O[C@H](COS(=O)(=O)O)[C@@H](O[C@@H]4O[C@H](C(=O)O)[C@@H](O[C@H]5O[C@H](COS(=O)(=O)O)[C@@H](O)[C@H](O)[C@H]5NS(=O)(=O)O)[C@H](O)[C@H]4O)[C@H](OS(=O)(=O)O)[C@H]3NS(=O)(=O)O)[C@H](O)[C@H]2OS(=O)(=O)O)[C@H](O)[C@H]1NS(=O)(=O)O [Fondaparinux sodium]
- half-life in human [3]: 17 h
